Data as given in article PMC4503722, “Novel Phenotypic Outcomes Identified for a Public Collection of Approved Drugs from a Publicly Accessible Panel of Assays” (PLoS ONE, 2015).

What was measured:
[1] = tested on: ECFC/ADSC co-culture cell nuclei number
[2] = tested on: nuclear β-catenin in C2C12 cells; assay: cells; format: cell-based; settings: assay number 5; concentration response
[3] = tested on: alkaline phosphatase (ALP) activity in C2C12 cells; format: cell-based; settings: assay number 6; concentration response
[4] = tested on: endothelial tube formation in co-cultures of ECFCs and ADSCs treated with VEGF; assay: cells; format: cell-based, human
DLD-1 = assay: cells; format: cell-based; settings: assay number 23; basal
[5] = tested on: HCT116 cells treated with a GSK3β inhibitor; assay: cells; format: cell-based; settings: assay number 26; GSK3b inhibitor pretreated
RKO = assay: cells; format: cell-based; settings: assay number 29; basal
HeLa cells = assay: cells; format: cell-based; settings: for Hela CellCycMod PI 4N IC50/EC50: assay number 16; for Hela CellCycMod PI MI IC50/EC50: assay number 17; for Hela CellCycMod PI Cell Number IC50/EC50: assay number 18; for Hela CellCycMod PI 2N IC50/EC50: assay number 14; for Hela CellCycMod PI S Phase IC50/EC50: assay number 15
SW480 = assay: cells; format: cell-based; settings: assay number 24; basal
Colo320 = assay: cells; format: cell-based; settings: assay number 27; basal

Row | SMILES | VEGF_ADSC\ECFC Angio Hoechst NucArea IC50/EC50 [1] | WntCondMedia_bCatenin C2C12 IC50/EC50 [2] | WntCondMedia_Alk Phos C2C12 IC50/EC50 [3] | VEGF_ADSC\ECFC Angio CD31 TubeArea IC50/EC50 [4] | Basal_Viability ATP DLD-1 IC50/EC50 (DLD-1) | GSK3b inh pretreated_Viability ATP HCT116 IC50/EC50 [5] | Basal_Viability ATP RKO IC50/EC50 (RKO) | Hela CellCycMod PI 4N IC50/EC50 (HeLa cells) | Hela CellCycMod PI MI IC50/EC50 (HeLa cells) | Hela CellCycMod PI Cell Number IC50/EC50 (HeLa cells) | Basal_Viability ATP SW480 IC50/EC50 (SW480) | Basal_Viability ATP Colo 320 IC50/EC50 (Colo320) | Hela CellCycMod PI 2N IC50/EC50 (HeLa cells) | Hela CellCycMod PI S Phase IC50/EC50 (HeLa cells)
1 | Cl.O[C@@H](c1cc(C(F)(F)F)nc2c(C(F)(F)F)cccc12)[C@H]1CCCCN1 [NCGC00161831-04] | 8.609 µM | > 20 µM | > 20 µM | > 10 µM | – | – | – | – | – | – | – | – | – | –
2 | COc1cccc2c1C(=O)c1c(O)c3c(c(O)c1C2=O)C[C@@](O)(C(=O)CO)CC3OC1CC(N2CCOC(OC)C2)C(O)C(C)O1 (stereo partly drawn) [NCGC00319019-01] | 0.04422 µM | 0.0135 µM | > 20 µM | 0.003 µM | 1 nM | 1 nM | 1 nM | > 10 µM | 0.01176 µM | 0.00468 µM | 1 nM | 1 nM | – | –
3 | C=CC(=O)Nc1cc2c(Nc3ccc(F)c(Cl)c3)ncnc2cc1OCCCN1CCOCC1 [NCGC00182713-01] | – | 1.0017 µM | 9.4628 µM | – | – | – | – | > 10 µM | 4.2934 µM | 2.0936 µM | – | – | 8.8729 µM | > 10 µM
4 | COc1cc([C@@H]2c3cc4c(cc3[C@@H](O[C@@H]3O[C@@H]5CO[C@@H](C)O[C@@H]5[C@H](O)[C@@H]3O)[C@H]3COC(=O)[C@H]23)OCO4)cc(OC)c1O [NCGC00179504-05] | 0.9666 µM | > 20 µM | > 20 µM | 0.1091 µM | – | – | – | – | – | – | – | – | – | –
5 | CCCCCCCCCCCCNCCNCCNCC(=O)O [NCGC00274269-01] | > 10 µM | > 20 µM | > 20 µM | 6.0404 µM | – | – | – | > 10 µM | > 10 µM | > 10 µM | – | – | > 10 µM | > 10 µM
6 | CCCCCCCCCCOCC(O)CN (stereo not drawn) [NCGC00166070-02] | > 10 µM | > 20 µM | > 20 µM | 6.5465 µM | – | – | – | > 10 µM | > 10 µM | > 10 µM | – | – | > 10 µM | > 10 µM
7 | CCCCCCCCCCCCCC[N+](C)(C)Cc1ccccc1 [NCGC00187943-02] | 8.357 µM | > 20 µM | > 20 µM | 3.0091 µM | – | – | – | – | – | – | – | – | – | –
8 | Cc1nc(Nc2ncc(C(=O)Nc3c(C)cccc3Cl)s2)cc(N2CCN(CCO)CC2)n1 [NCGC00181129-06] | > 10 µM | 0.1044 µM | 0.0067 µM | > 10 µM | – | – | – | > 10 µM | > 10 µM | 0.8748 µM | – | – | > 10 µM | –
